Values of other authors as cited in patent US20090062406A1, “Aqueous concentrates of isethionate, taurate and betaine” (Clariant International Ltd., priority 2007, published 2009).

Conditions: 20° C.

- Solubility in water: 10 g/L
Substance: sodium methyl cocoyl taurate
